Assay results: PubChem BioAssay (NCI)
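Results reflect a 48-hour exposure of cells in 96-well plates to compound at five concentrations. The concentration for 50% growth inhibition is given as GI50. Definition used: TGI = concentration required for complete inhibition of growth.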

Experiments:
Assay in all cases: DTP human tumour cell line panel, 48 h
[1] = system: K-562 leukemia
[2] = system: HS 578T breast
[3] = system: SR leukemia
[4] = system: M14 melanoma
[5] = system: MOLT-4 leukemia
[6] = system: 786-0 renal
[7] = system: SK-MEL-5 melanoma
[8] = system: RPMI-8226 leukemia
[9] = system: EKVX NSCLC
[10] = system: NCI-H522 lung
[11] = system: KM12 colon
[12] = system: SN12C renal
[13] = system: OVCAR-5 ovarian
[14] = system: SNB-19 CNS
[15] = system: HOP-92 NSCLC
[16] = system: HCT-15 colon
[17] = system: COLO 205 colon
[18] = system: DU-145 prostate
[19] = system: SNB-75 CNS
[20] = system: HOP-62 NSCLC
[21] = system: UO-31 renal
[22] = system: SF-539 CNS
[23] = system: HCT-116 colon
[24] = system: A549 NSCLC
[25] = system: MDA-MB-231 breast
[26] = system: SW-620 colon
[27] = system: UACC-257 melanoma
[28] = system: U251 CNS
[29] = system: OVCAR-8 ovarian
[30] = system: T-47D breast
[31] = system: NCI-H460 lung
[32] = system: SF-295 CNS
[33] = system: SK-OV-3 ovarian
[34] = system: UACC-62 melanoma
[35] = system: MDA-MB-435
[36] = system: MCF7 breast
[37] = system: NCI-H226 lung
[38] = system: OVCAR-4 ovarian
[39] = system: TK-10 renal
[40] = system: RXF 393 renal
[41] = system: A498 renal
[42] = system: HL-60(TB) leukemia
[43] = system: MALME-3M melanoma
[44] = system: NCI/ADR-RES ovarian
[45] = system: ACHN renal
[46] = system: IGROV1 ovarian
[47] = system: HCC-2998 colon
[48] = system: SF-268 CNS
[49] = system: CAKI-1 renal
[50] = system: LOX IMVI melanoma
[51] = system: SK-MEL-28 melanoma
[52] = system: CCRF-CEM leukemia
[53] = system: BT-549 breast
[54] = system: PC-3 prostate
[55] = system: NCI-H23 lung
[56] = system: OVCAR-3 ovarian
[57] = system: HT29 colon
[58] = system: SK-MEL-2 melanoma

COC(=O)[C@@H]1C[C@@]2(C3C=CN(C(=O)C(F)(F)F)C=C3)c3ccccc3N(C(=O)C(F)(F)F)[C@H]2N1C(=O)OC
TGI [1]: > 100 µM | TGI [2]: > 100 µM | TGI [3]: > 100 µM | TGI [4]: > 100 µM | TGI [5]: > 100 µM | TGI [6]: > 100 µM | TGI [7]: > 100 µM | TGI [8]: > 100 µM | TGI [9]: > 100 µM | TGI [10]: > 100 µM | TGI [11]: > 100 µM | TGI [12]: > 100 µM | TGI [13]: > 100 µM | TGI [14]: > 100 µM | TGI [15]: > 100 µM | TGI [16]: > 100 µM | TGI [17]: > 100 µM | TGI [18]: > 100 µM | TGI [19]: > 100 µM | TGI [20]: > 100 µM | TGI [21]: > 100 µM | TGI [22]: > 100 µM | TGI [23]: > 100 µM | TGI [24]: > 100 µM | TGI [25]: > 100 µM | TGI [26]: > 100 µM | TGI [27]: > 100 µM | TGI [28]: > 100 µM | TGI [29]: > 100 µM | TGI [30]: > 100 µM | TGI [31]: > 100 µM | TGI [32]: > 100 µM | TGI [33]: > 100 µM | TGI [34]: > 100 µM | TGI [35]: > 100 µM | TGI [36]: > 100 µM | TGI [37]: > 100 µM | TGI [38]: > 100 µM | TGI [39]: 60.5 µM | TGI [40]: 60.4 µM | TGI [41]: > 100 µM | TGI [42]: > 100 µM | TGI [43]: > 100 µM | TGI [44]: > 100 µM | TGI [45]: > 100 µM | TGI [46]: > 100 µM | TGI [47]: > 100 µM | TGI [48]: > 100 µM | TGI [49]: > 100 µM | TGI [50]: > 100 µM | TGI [51]: > 100 µM | TGI [52]: > 100 µM | TGI [53]: > 100 µM | TGI [54]: > 100 µM | TGI [55]: > 100 µM | TGI [56]: > 100 µM

CCN(CC)CCCC(C)Nc1c2ccc(C)cc2nc2ccc(OC)cc12 (stereo unspecified)
GI50 [1]: 2.92 µM | TGI [1]: 10.6 µM | GI50 [2]: 3.26 µM | TGI [2]: 17.2 µM | GI50 [3]: 2.04 µM | TGI [3]: 7.18 µM | GI50 [4]: 1.58 µM | TGI [4]: 3.18 µM | GI50 [5]: 0.777 µM | TGI [5]: 13.6 µM | GI50 [6]: 2.05 µM | TGI [6]: 8.58 µM | GI50 [7]: 1.65 µM | TGI [7]: 3.03 µM | GI50 [8]: 1.75 µM | TGI [8]: 5.05 µM | GI50 [57]: 0.37 µM | TGI [57]: 3.32 µM | GI50 [9]: 2.35 µM | TGI [9]: 16 µM | GI50 [11]: 1.39 µM | TGI [11]: 9.19 µM | GI50 [12]: 3.12 µM | TGI [12]: 55.1 µM | GI50 [13]: 2.11 µM | TGI [13]: 21.6 µM | GI50 [14]: 4.78 µM | TGI [14]: 35.7 µM | GI50 [15]: 0.885 µM | TGI [15]: 5.1 µM | GI50 [16]: 2.32 µM | TGI [16]: 13.1 µM | GI50 [17]: 1.21 µM | TGI [17]: 2.96 µM | GI50 [18]: 1.65 µM | TGI [18]: 8.83 µM | GI50 [19]: 1.37 µM | TGI [19]: 3.24 µM | GI50 [20]: 1.37 µM | TGI [20]: 3.49 µM | GI50 [21]: 1.05 µM | TGI [21]: 2.36 µM | GI50 [22]: 1.71 µM | TGI [22]: 3.98 µM | GI50 [23]: 0.585 µM | TGI [23]: 6.46 µM | GI50 [24]: 0.6 µM | TGI [24]: 3.25 µM | GI50 [25]: 1.61 µM | TGI [25]: 5.41 µM | GI50 [58]: 1.89 µM | TGI [58]: 8.75 µM | GI50 [26]: 0.709 µM | TGI [26]: 10.2 µM | GI50 [27]: 1.62 µM | TGI [27]: 3.05 µM | GI50 [28]: 1.35 µM | TGI [28]: 4.45 µM | GI50 [29]: 0.521 µM | TGI [29]: 3.53 µM | GI50 [30]: 11.8 µM | TGI [30]: 33.9 µM | GI50 [31]: 1.2 µM | TGI [31]: 3.74 µM | GI50 [32]: 1.47 µM | TGI [32]: 4.89 µM | GI50 [33]: 2.42 µM | TGI [33]: 15.7 µM | GI50 [34]: 10.5 µM | TGI [34]: 27.9 µM | GI50 [35]: 1.6 µM | TGI [35]: 3.38 µM | GI50 [36]: 0.837 µM | TGI [36]: 11.1 µM | GI50 [38]: 1.13 µM | TGI [38]: 3.02 µM | GI50 [39]: 0.569 µM | TGI [39]: 12.5 µM | GI50 [40]: 1.44 µM | TGI [40]: 2.88 µM | GI50 [41]: 0.863 µM | TGI [41]: 13.8 µM | GI50 [42]: 2.71 µM | TGI [42]: 9.44 µM | GI50 [43]: 1.73 µM | TGI [43]: 3.53 µM | GI50 [44]: 4.03 µM | TGI [44]: 22.7 µM | GI50 [45]: 0.741 µM | TGI [45]: 11.7 µM | GI50 [46]: 0.514 µM | TGI [46]: 3.12 µM | GI50 [48]: 2.53 µM | TGI [48]: 13.5 µM | GI50 [49]: 2.68 µM | TGI [49]: 8.98 µM | GI50 [50]: 1.38 µM | TGI [50]: 3.7 µM | GI50 [51]: 1.87 µM | TGI [51]: 3.35 µM | GI50 [52]: 1.82 µM | TGI [52]: 9.9 µM | GI50 [53]: 10.7 µM | TGI [53]: 27.3 µM | GI50 [54]: 1.94 µM | TGI [54]: 10.8 µM | GI50 [55]: 1.84 µM | TGI [55]: 5.86 µM | GI50 [56]: 1.75 µM | TGI [56]: 4.14 µM
